Results published in paper doi:10.1101/636423v1 (biorxiv, 2019).

How the values were obtained:
Test in all cases: DiFMUP hydrolysis, fluorogenic phosphatase assay
Format in all cases: biochemical
[1] = molecular target: PTPRZ-ΔD2 (ΔD2 mutant of PTPRZ-ICR) (Rattus norvegicus, UniProt Q62656); settings: substrate DiFMUP; competitive; also bound 1:1 in native MS
[2] = molecular target: rat PTPRZ-D1D2 (PTPRZ-ICR) (Rattus norvegicus, UniProt Q62656, D2178K/D2179K); settings: substrate DiFMUP; competitive; also bound 1:1 in native MS
rat PTPRZ-D1D2 (PTPRZ-ICR) (Rattus norvegicus, UniProt Q62656, D2178K/D2179K), sequence (Q62656 1699-2316 D2178K/D2179K): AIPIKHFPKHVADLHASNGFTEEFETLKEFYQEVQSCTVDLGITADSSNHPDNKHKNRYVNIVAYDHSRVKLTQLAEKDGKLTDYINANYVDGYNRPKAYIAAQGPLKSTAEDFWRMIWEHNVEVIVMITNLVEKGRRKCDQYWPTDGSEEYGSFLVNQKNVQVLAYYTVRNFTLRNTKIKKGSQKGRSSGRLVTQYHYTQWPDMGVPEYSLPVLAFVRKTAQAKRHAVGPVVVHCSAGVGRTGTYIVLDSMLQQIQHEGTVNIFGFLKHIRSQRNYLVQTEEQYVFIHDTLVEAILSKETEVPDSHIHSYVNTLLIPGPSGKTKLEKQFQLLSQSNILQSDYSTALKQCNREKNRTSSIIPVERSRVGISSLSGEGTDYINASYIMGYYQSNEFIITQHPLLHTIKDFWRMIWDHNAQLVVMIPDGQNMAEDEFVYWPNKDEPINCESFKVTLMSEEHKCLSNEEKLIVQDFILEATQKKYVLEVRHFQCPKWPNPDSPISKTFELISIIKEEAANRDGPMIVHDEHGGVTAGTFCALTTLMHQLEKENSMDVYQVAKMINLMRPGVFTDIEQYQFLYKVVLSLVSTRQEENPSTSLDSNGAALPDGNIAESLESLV

[3] = molecular target: rat PTPRZ-D1D2 (PTPRZ-ICR) (Rattus norvegicus, UniProt Q62656); settings: substrate DiFMUP; competitive; also bound 1:1 to monomer in native MS
rat PTPRZ-D1D2 (PTPRZ-ICR) (Rattus norvegicus, UniProt Q62656), sequence (Q62656 1699-2316): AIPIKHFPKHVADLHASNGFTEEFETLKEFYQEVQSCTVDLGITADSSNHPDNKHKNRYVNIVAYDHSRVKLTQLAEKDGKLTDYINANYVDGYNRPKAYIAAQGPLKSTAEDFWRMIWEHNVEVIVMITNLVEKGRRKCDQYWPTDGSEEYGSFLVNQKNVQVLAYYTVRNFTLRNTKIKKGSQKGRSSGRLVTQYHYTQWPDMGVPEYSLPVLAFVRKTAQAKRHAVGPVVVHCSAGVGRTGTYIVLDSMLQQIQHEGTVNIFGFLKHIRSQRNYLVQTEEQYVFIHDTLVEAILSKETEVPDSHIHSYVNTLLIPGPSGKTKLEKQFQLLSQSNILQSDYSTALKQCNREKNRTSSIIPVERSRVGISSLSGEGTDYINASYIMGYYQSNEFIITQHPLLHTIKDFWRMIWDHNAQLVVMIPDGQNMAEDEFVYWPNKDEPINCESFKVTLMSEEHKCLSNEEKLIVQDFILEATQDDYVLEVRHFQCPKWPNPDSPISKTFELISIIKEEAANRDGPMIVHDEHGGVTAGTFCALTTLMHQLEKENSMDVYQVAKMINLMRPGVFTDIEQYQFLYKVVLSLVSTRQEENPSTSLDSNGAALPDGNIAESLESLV

SCB4380
IC50 [1]: 400 nM | IC50 [2]: 370 nM | IC50 [3]: 380 nM
